From patent US20130072523A1, “ANALOGUES FOR THE TREATMENT OR PREVENTION OF FLAVIVIRUS INFECTIONS” (VERTEX PHARMACEUTICALS INCORPORATED, priority 2009, published 2013)

Test system: HCV 1b genotype
Experiment: Cell-based luciferase reporter HCV (Ib) RNA replication assay (Huh-ET replicon cells)
Conditions: Hepatitis C virus, 96 h; HCV 1b genotype replicon, 4 days incubation, luciferase readout
Excerpt: Cell-Based Luciferase Reporter HCV (Ib) RNA Replication Assay Cell Culture
Replicon cell lines Huh-5.2 are derived from the Huh-7 hepatocarcinoma cell line are maintained in culture as generally described in Krieger, N; Lohmann, V; Bartenschlager, R. Enhancement of hepatitis C virus RNA replication by cell culture-adaptive mutations. J. Virol. 2001, 75, 4614-4624. The Huh-5.2 cells contain the highly cell culture-adapted replicon I389 Luc-ubi-neo/NS3-375.1 construct that carries, in addition to the neomycin gene, an integrated copy to the firefly luciferase gene (Krieger, N; Lohmann, V; Bartenschlager, R. Enhancement of hepatitis C virus RNA replication by cell culture-adaptive mutations. J. Virol. 2001, 75, 4614-4624). This cell line allows measurement of HCV RNA replication and translation by measuring luciferase activity. It has been previously shown that the luciferase activity tightly follows the replicon RNA level in these cells (Krieger, N; Lohmann, V; Bartenschlager, R. Enhancement of hepatitis C virus RNA replication by cell culture-adaptive mutations. J. Virol. 2001, 75, 4614-4624). The Huh-ET cell line has the same features as those mentioned for Huh-5.2 cell line, except that ET cells are more robust and contain an adaptative mutation in the HCV NS4B gene instead of NS5A. Both cell lines are maintained in cultures at a sub-confluent level (<85%) as the level of replicon RNA is highest in actively proliferating cells. The culture media used for cell passaging consist of DMEM (Gibco BRL Laboratories, Mississauga, ON, Canada) supplemented with 10% foetal bovine serum with 1% penicilin/streptomycin, 1% glutamine, 1% sodium pyruvate, 1% non-essential amino acids, and 180 μg/ml of G418 final concentration. Cells are incubated at 37° C., in an atmosphere of 5% CO2 and passaged twice a week to maintain sub-confluence.
Approximately 3000 viable Huh-ET cells (100 μl) are plated per well in a white opaque 96-well microtiter plate. The cell culture media used for the assay is the same as described above except that it contains no G418 and no phenol red. After an incubation period of 3-4 hours at 37° C. in a 5% CO2 incubator, compounds (100 μl) are added at various concentrations. Cells are then further incubated for 4 days at 37° C. in a 5% CO2 incubator. Thereafter, the culture media is removed and cells are lysed by the addition of 95 μL of the luciferase buffer (luciferin substrate in buffered detergent). Cell lysates are incubated at room temperature and protected from direct light for at least 10 minutes. Plates are read for luciferase counts using a luminometer (Wallac MicroBeta Trilux, Perkin Elmer™, MA, USA).
The 50% inhibitory concentrations (IC50s) for inhibitory effect are determined from dose response curves using eleven concentrations per compound in duplicate. Curves are fitted to data points using nonlinear regression analysis, and IC50s are interpolated from the resulting curve using GraphPad Prism software, version 2.0 (GraphPad Software Inc., San Diego, Calif., USA).
EC50 ranges are presented in micromolar as follows: μM+++<=0.005<++<=5.0<+.

| SMILES | IC50 |
| --- | --- |
| COC(=O)N[C@H](C(=O)N1C[C@H](C)C[C@H]1c1ncc(C#Cc2ccc(C#Cc3cnc([C@@H]4C[C@H](C)CN4C(=O)[C@@H](NC(=O)OC)C(C)C)[nH]3)cc2)[nH]1)C(C)C [Compound 38] | ≤ 5 nM |
| COC(=O)N[C@H](C(=O)N1C[C@@H](C)C[C@H]1c1nc(C)c(C#Cc2ccc3cc(C#Cc4[nH]c([C@@H]5C[C@H](C)CN5C(=O)[C@@H](NC(=O)OC)C(C)C)nc4C)ccc3c2)[nH]1)C(C)C [Compound 37] | ≤ 5 nM |
| COC(=O)N[C@H](C(=O)N1C[C@@H](C)C[C@H]1c1nc(C#Cc2ccc3sc(C#Cc4c[nH]c([C@@H]5C[C@H](C)CN5C(=O)[C@@H](NC(=O)OC)C(C)C)n4)cc3c2)c[nH]1)C(C)C [Compound 61] | ≤ 5 nM |
| COC(=O)N[C@H](C(=O)N1C[C@@H](C)C[C@H]1c1nc(C#CC#Cc2c[nH]c([C@@H]3C[C@H](C)CN3C(=O)[C@@H](NC(=O)OC)C(C)C)n2)c[nH]1)C(C)C [Compound 53] | ≤ 5 nM |
| COC(=O)N(C)[C@H](C(=O)N1C[C@@H](C)C[C@H]1c1ncc(C#Cc2ccc(C#Cc3cnc([C@@H]4C[C@H](C)CN4C(=O)[C@H](C(C)C)N(C)C(=O)OC)[nH]3)cc2)[nH]1)C(C)C [Compound 11] | ≤ 5 nM |
| COC(=O)N[C@H](C(=O)N1C[C@@H](C)C[C@H]1c1ncc(C#Cc2ccc(C#Cc3[nH]c([C@@H]4C[C@H](C)CN4C(=O)[C@@H](NC(=O)OC)C(C)C)nc3I)cc2)[nH]1)C(C)C [Compound 20] | ≤ 5 nM |
| COC(=O)N[C@H](C(=O)N1C[C@@H](C)C[C@H]1c1nc(CCc2ccc(CCc3c[nH]c([C@@H]4C[C@H](C)CN4C(=O)[C@@H](NC(=O)OC)C(C)C)n3)cc2)c[nH]1)C(C)C [Compound 17] | 5 to 5000 nM |
| COC(=O)N[C@H](C(=O)N1C[C@@H](C)C[C@@H]1c1ncc(C#Cc2ccc(C#Cc3cnc([C@@H]4C[C@H](C)CN4C(=O)[C@@H](NC(=O)OC)C(C)C)[nH]3)cc2)[nH]1)C(C)C [Compound 52] | 5 to 5000 nM |
| COC(=O)N[C@H](C(=O)N1C[C@@H](C)C[C@H]1c1nc(CO)c(C#Cc2ccc(C#Cc3[nH]c([C@@H]4C[C@H](C)CN4C(=O)[C@@H](NC(=O)OC)C(C)C)nc3CO)cc2)[nH]1)C(C)C [Compound 59] | 5 to 5000 nM |
| COC(=O)N[C@H](C(=O)N1C[C@@H](C)C[C@H]1c1ncc(C#Cc2ccc(C#Cc3cnc([C@@H]4C[C@H](C)CN4C(=O)[C@H](C(C)C)N(C)C(=O)OC)[nH]3)cc2)[nH]1)C(C)C [Compound 12] | ≤ 5 nM |
| C[C@H]1C[C@@H](c2ncc(-c3ccc(-c4ccc(-c5cnc([C@@H]6C[C@H](C)CN6C(=O)OC(C)(C)C)[nH]5)s4)cc3)[nH]2)N(C(=O)OC(C)(C)C)C1 [Compound 65] | 5 to 5000 nM |
| [2H]C([2H])([2H])C([2H])(C([2H])([2H])[2H])[C@@]([2H])(NC(=O)OC)C(=O)N1C[C@@H](C)C[C@H]1c1ncc(C#Cc2ccc(C#Cc3cnc([C@@H]4C[C@H](C)CN4C(=O)[C@@H](NC(=O)OC)C(C)C)[nH]3)cc2)[nH]1 [Compound 44] | ≤ 5 nM |
| COC(=O)N[C@@H](C(=O)N1C[C@@H](C)C[C@H]1c1ncc(C#Cc2ccc(C#Cc3cnc([C@@H]4C[C@H](C)CN4C(=O)[C@H](NC(=O)OC)C(C)C)[nH]3)cc2)[nH]1)C(C)C [Compound 32] | 5 to 5000 nM |
| COC(=O)N[C@H](C(=O)N1C[C@@H](C)C[C@H]1c1ncc(C#Cc2ccc(C#Cc3cnc([C@@H]4C[C@H](C)CN4C(=O)[C@@H](NC(=O)OC)C(C)C)[nH]3)nc2)[nH]1)C(C)C [Compound 56] | ≤ 5 nM |
| COC(=O)N[C@H](C(=O)N1C[C@@H](C)C[C@H]1c1nc(-c2ccc3cc(-c4c[nH]c([C@@H]5C[C@H](C)CN5C(=O)[C@@H](NC(=O)OC)C(C)C)n4)ccc3c2)c[nH]1)C(C)C [Compound 49] | ≤ 5 nM |
| COC(=O)N[C@H](C(=O)N1C[C@@H](C)C[C@H]1c1nc(C)c(C#Cc2ccc(C#Cc3[nH]c([C@@H]4C[C@H](C)CN4C(=O)[C@@H](NC(=O)OC)C(C)C)nc3C)cc2)[nH]1)C(C)C [Compound 18] | ≤ 5 nM |
| COC(=O)N[C@H](C(=O)N1C[C@@H](C)C[C@H]1c1nc(C#Cc2ccc3cc(C#Cc4c[nH]c([C@@H]5C[C@H](C)CN5C(=O)[C@@H](NC(=O)OC)C(C)C)n4)ccc3c2)c[nH]1)C(C)C [Compound 6] | ≤ 5 nM |
| COC(=O)N[C@H](C(=O)N1C[C@@H](C)C[C@H]1c1nc(C#Cc2ccc(C#Cc3c[nH]c([C@@H]4C[C@H](C)CN4C(=O)[C@@H](NC(=O)OC)C(C)C)n3)c(C(=O)OC)c2)c[nH]1)C(C)C [Compound 57] | ≤ 5 nM |
| CC[C@H]1C[C@@H](c2ncc(C#Cc3ccc(C#Cc4cnc([C@@H]5C[C@H](CC)CN5C(=O)[C@@H](NC(=O)OC)C(C)C)[nH]4)cc3)[nH]2)N(C(=O)[C@@H](NC(=O)OC)C(C)C)C1 [Compound 41] | ≤ 5 nM |
| COC(=O)N[C@H](C(=O)N1C[C@@H](C)C[C@H]1c1ncc(-c2ccc(-c3cc4sc(-c5cnc([C@@H]6C[C@H](C)CN6C(=O)[C@@H](NC(=O)OC)C(C)C)[nH]5)cc4s3)cc2)[nH]1)C(C)C [Compound 69] | ≤ 5 nM |
| COC(=O)N[C@H](C(=O)N1C[C@@H](C)C[C@@H]1c1ncc(C#Cc2ccc(C#Cc3cnc([C@@H]4C[C@@H](C)CN4C(=O)[C@@H](NC(=O)OC)C(C)C)[nH]3)cc2)[nH]1)C(C)C [Compound 27] | 5 to 5000 nM |
| COC(=O)N[C@H](C(=O)N1C[C@@H](C)C[C@H]1c1nc(C(F)(F)F)c(C#Cc2ccc(C#Cc3[nH]c([C@@H]4C[C@H](C)CN4C(=O)[C@@H](NC(=O)OC)C(C)C)nc3C(F)(F)F)cc2)[nH]1)C(C)C [Compound 48] | ≤ 5 nM |
| COC(=O)N[C@H](C(=O)N1C[C@@H](C)C[C@H]1c1nc(C)c(C#Cc2cc3sc(C#Cc4[nH]c([C@@H]5C[C@H](C)CN5C(=O)[C@@H](NC(=O)OC)C(C)C)nc4C)cc3s2)[nH]1)C(C)C [Compound 66] | ≤ 5 nM |
| COC(=O)N[C@H](C(=O)N1C[C@H](C)C[C@H]1c1nc(C#Cc2ccc(C#Cc3c[nH]c([C@@H]4C[C@@H](C)CN4C(=O)[C@@H](NC(=O)OC)C(C)C)n3)cc2)c[nH]1)C(C)C [Compound 9] | ≤ 5 nM |
| COC(=O)N[C@H](C(=O)N1C[C@@H](C)C[C@H]1c1ncc(C#Cc2ccc(C#Cc3cnc([C@@H]4C[C@H](C)CN4C(=O)[C@@H](NC(=O)OC)C(C)C)[nH]3)c(F)c2)[nH]1)C(C)C [Compound 36] | ≤ 5 nM |
| COC(=O)N[C@H](C(=O)N1CCC[C@H]1c1nc(-c2cc3sc(-c4c[nH]c([C@@H]5CCCN5C(=O)[C@@H](NC(=O)OC)C(C)C)n4)cc3s2)c[nH]1)C(C)C [Example 25, Methyl N-[(1S)-1-[(2S)-2-[4-[2-[2-[(2S)-1-[(2S)-2-(methoxycarbonylamino)-3-methyl-butanoyl]pyrrolidin-2-yl]-1H-imidazol-4-yl]thieno[3,2-b]thiophen-5-yl]-1H-imidazol-2-yl]pyrrolidine-1-carbonyl]-2-methyl-propyl]carbamate] | ≤ 5 nM |
| COC(=O)N[C@H](C(=O)N1C[C@@H](C)C[C@H]1c1ncc(C#Cc2ccc(C#Cc3cnc([C@@H]4C[C@H](C)CN4C(=O)OC(C)(C)C)[nH]3)cc2)[nH]1)C(C)C [Compound 54] | ≤ 5 nM |
| COC(=O)N[C@H](C(=O)N1CCC[C@H]1c1nc(C)c(C#Cc2ccc(C#Cc3[nH]c([C@@H]4CCCN4C(=O)[C@@H](NC(=O)OC)C(C)C)nc3C)cc2)[nH]1)C(C)C [Compound 19] | ≤ 5 nM |
